The values that follow come from patent US10981906B2, “Substituted pyrrolopyridine JAK inhibitors and methods of making and using the same” (ACLARIS THERAPEUTICS, INC., priority 2017, dated 2021).

Where two headings read alike, the source gives them in different places. Bounds are passed on as bounds.

Experiment [1] addresses JAK1 (Homo sapiens (Human), UniProt P23458). The experiment is described as follows: JAK1 enzyme activity assay (Thermo Fisher SelectScreen Z-lyte). In kind it is biochemical. To be noted: 1 hour kinase reaction, read-out: JAK1 Inhibition IC50. As for the experimental part:
The inhibitory potency of candidate compounds of JAK1 done at Thermo Fisher Scientific in their Selectscreen using a Z-lyte assay. The 2×JAK1/Tyr 06 mixture is prepared in 50 mM HEPES pH 6.5, 0.01% BRIJ-35, 10 mM MgCl2, 1 mM EGTA, 0.02% NaN3. The final 10 μL of the Kinase Reaction consists of 21.2-91.5 ng JAK1 and 2 μM Tyr 06 in 50 mM HEPES pH 7.0, 0.01% BRIJ-35, 10 mM MgCl2, 1 mM EGTA, 0.01% NaN3. After the 1 hour Kinase Reaction incubation, 5 μL of a 1:128 dilution of Development Reagent is added.
(§1) Background signal is defined in the absence of enzyme and uninhibited signal is defined in the presence of vehicle (2% DMSO) alone. Compounds were evaluated in an 11 point dose-response ranging from […] to 0.34 nM. IC50 values of compounds are determined using a 4 parameter logistical fit of emission ratio as a function of the concentration of compound.

The target of experiment [2] is JAK3 (a.a. 781-1124) (Homo sapiens (Human), UniProt P52333). The experiment can be described thus: JAK3 enzyme activity assay (SRCtide phosphorylation, Caliper). The class given is biochemical. The conditions noted are these: 2.5 nM JAK3, 1 μM SRCtide, 1 uM ATP, 40 minutes; read-out: JAK3 Inhibition IC50. Here is the method: The activity of JAK3 (a.a. 781-1124, ThermoFisher) was quantified by measuring the phosphorylation of SRCtide (FAM-GEEPLYWSFPAKKK-NH2). Kinase reactions were run in a 384-well Greiner plate with 2% final DMSO concentration under the buffer conditions of 20 mM HEPES, pH 7.5, 10 mM MgCl2, 0.01% BSA, and 0.0005% Tween-20. The kinase reaction components were 2.5 nM JAK3, 1 μM SRCtide peptide and 1 uM ATP. Examples were tested in dose-response starting at 2 μM (11 concentrations, 3-fold serial dilution, duplicate reactions). The reactions were incubated at room temperature for 40 minutes, then stopped by adding a 1:1 volume of 30 mM EDTA in 20 mM HEPES, pH 7.5 (15 mM EDTA final). After the reaction was stopped, the phosphorylated and unphosphorylated peptides were separated and quantified using a Caliper LC3000/EZ-Reader system and HTS Well Analyzer Software (Caliper, A PerkinElmer Company, Hopkinton, Mass.). GraFit (Erithacus Software Ltd., Horley, U.K.) was used to calculate inhibitor potency by fitting dose-response data to the 4-parameter logistical IC50 equation.
as §1

Experiment [3] deals with IFNγ stimulated STAT1 phosphorylation on Tyr701 (JAK1/2). The experiment can be described thus: JAK1/2 cellular target modulation: IFNγ stimulated phospho-STAT1 in PBMC. In kind it is cell-based. The conditions noted are these: IFNγ 10 ng/ml, 1 hour compound preincubation, read-out: Infγ-STAT1 IC50. The source says: (§2) Target modulation was based upon the ability of a compound to inhibit JAK isoform specific phosphorylation of selected substrates. IL-2 stimulated STAT5 phosphorylation on Tyr694 was used to assess JAK1/3 compound selectivity. GM-CSF stimulated STAT5 phosphorylation on Tyr694 was used to assess JAK2 compound selectivity. IFNγ stimulated STAT1 phosphorylation on Tyr701 was used to assess JAK1/2 compound selectivity. For all three assays, human PBMC from frozen stocks were thawed, pelleted, resuspended in complete media (90% RPMI, 10% heat inactivated FBS, 10 mM HEPES, 47 μM 2-ME, pen/strep) and placed in wells of a 96 well V-bottom plate at 200,000 per well in 120 μl complete media. Compounds were added as 15 μl per well of 10× working stock solutions in complete media with 1% DMSO (or medium with 1% DMSO for controls) and placed on a plate shaker in a 37° C. incubator with 5% CO2 for 1 hour with gentle shaking (setting of 3). Stimulation used the addition of soluble cytokines. For the JAK1/3 phospho-STAT5 assay, 15 μl of 10× working stock recombinant human IL-2 was added to a final concentration of 25 ng/ml. For the JAK2 phospho-STAT5 assay, 15 μl of 10× working stock recombinant human GM-CSF was added to a final concentration of 5 ng/ml. For the JAK1/2 phospho-STAT1 assay, 15 μl of 10× working stock of recombinant human IFNγ was added to a final concentration of 10 ng/ml. Plates were then placed back on the plate shaker in the incubator for an additional 5, 5 and 10 minutes respectively upon which the plates were removed from the incubator, sealed with a plate sealer and the cells pelleted at 400×g for 5 minutes. After pelleting, the media was removed by aspiration and the cells were lysed in ELISA specific cell lysis buffer. The levels of phospho-STAT5 were determined using a Phospho (Tyr694)/Total STAT5a,b Whole Cell Lysate kit from Meso Scale Discovery. Levels of phospho-STAT1 were determined using a CST-PathScan Phospho-STAT1 (Tyr701) Sandwich ELISA kit.

Experiment [4] relates to IL-2 stimulated STAT5 phosphorylation on Tyr694 (JAK1/3). The experiment can be described thus: JAK1/3 cellular target modulation: IL-2 stimulated phospho-STAT5 in PBMC. In kind it is cell-based. The conditions noted are these: IL-2 25 ng/ml, 1 hour compound preincubation, read-out: IL2-STAT5 Inhibition IC50.
From the text: as §2

Chain of JAK1 (P23458 whole entry): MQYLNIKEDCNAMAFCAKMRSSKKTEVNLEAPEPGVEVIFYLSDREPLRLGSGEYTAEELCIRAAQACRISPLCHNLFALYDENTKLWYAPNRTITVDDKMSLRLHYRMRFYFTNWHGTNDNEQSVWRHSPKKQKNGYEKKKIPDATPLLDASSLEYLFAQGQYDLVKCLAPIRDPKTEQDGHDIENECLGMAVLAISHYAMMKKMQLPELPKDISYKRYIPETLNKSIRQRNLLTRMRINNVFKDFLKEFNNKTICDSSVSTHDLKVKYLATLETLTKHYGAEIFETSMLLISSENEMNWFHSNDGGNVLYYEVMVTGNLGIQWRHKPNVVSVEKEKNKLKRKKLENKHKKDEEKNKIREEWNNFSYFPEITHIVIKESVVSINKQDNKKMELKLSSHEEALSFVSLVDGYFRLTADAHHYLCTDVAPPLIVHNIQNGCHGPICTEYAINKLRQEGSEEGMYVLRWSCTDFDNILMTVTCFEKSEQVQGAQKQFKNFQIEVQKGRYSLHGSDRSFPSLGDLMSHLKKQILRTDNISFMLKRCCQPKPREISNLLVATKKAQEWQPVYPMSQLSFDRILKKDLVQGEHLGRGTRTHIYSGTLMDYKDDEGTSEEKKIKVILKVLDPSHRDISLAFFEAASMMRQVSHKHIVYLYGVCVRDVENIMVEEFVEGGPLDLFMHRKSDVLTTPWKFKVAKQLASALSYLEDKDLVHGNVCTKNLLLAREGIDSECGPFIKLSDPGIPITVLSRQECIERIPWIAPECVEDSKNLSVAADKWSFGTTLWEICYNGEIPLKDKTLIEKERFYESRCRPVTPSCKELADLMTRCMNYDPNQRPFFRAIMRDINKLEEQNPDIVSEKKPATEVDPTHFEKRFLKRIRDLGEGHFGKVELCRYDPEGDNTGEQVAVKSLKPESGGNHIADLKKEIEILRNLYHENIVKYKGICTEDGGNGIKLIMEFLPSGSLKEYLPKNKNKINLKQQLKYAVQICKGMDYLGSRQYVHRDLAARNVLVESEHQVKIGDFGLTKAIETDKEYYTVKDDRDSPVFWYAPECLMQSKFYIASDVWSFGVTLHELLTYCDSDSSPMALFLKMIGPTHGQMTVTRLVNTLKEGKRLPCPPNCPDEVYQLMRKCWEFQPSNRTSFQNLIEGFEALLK
Chain of JAK3 (a.a. 781-1124) (P52333 781-1124): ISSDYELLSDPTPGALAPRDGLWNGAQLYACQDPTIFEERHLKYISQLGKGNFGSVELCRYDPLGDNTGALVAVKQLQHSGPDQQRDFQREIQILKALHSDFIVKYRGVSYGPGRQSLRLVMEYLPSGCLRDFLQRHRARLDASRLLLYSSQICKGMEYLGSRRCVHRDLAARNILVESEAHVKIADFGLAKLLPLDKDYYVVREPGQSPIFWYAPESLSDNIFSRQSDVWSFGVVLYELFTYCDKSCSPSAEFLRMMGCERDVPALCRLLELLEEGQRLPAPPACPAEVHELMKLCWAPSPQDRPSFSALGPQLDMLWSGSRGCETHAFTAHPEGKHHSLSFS

`CCOC(=O)c1cnc2[nH]ccc2c1N[C@@H]1CCC[C@H](CCC#N)C1` (single isomer, unassigned; enantiomer 2) [Example 136, (cis) ethyl 4-((3-(2-cyanoethyl)cyclohexyl)amino)-1H-pyrrolo[2,3-b]pyridine-5-carboxylate, enantiomer 2]: the IC50 in experiment [1] is 10 to 100 nM; in experiment [2], 10 to 100 nM; in experiment [3] (Homo sapiens, PBMC), over 1000 nM; in experiment [4] (Homo sapiens, PBMC), 100 to 1000 nM.
`COC(=O)c1cnc2[nH]ccc2c1N[C@H]1CCC[C@H](CCC#N)C1` (racemic) [Example 151, trans-racemic-methyl 4-((3-(2-cyanoethyl)cyclohexyl)amino)-1H-pyrrolo[2,3-b]pyridine-5-carboxylate]: the IC50 is at most 10 nM in experiment [1]; at most 10 nM in experiment [2]; 100 to 1000 nM in experiment [3] (Homo sapiens, PBMC); at most 100 nM in experiment [4] (Homo sapiens, PBMC).
For `CCCOC(=O)c1cnc2[nH]ccc2c1N[C@H]1CCC[C@H](CCC#N)C1` (racemic) [Example 140, (rac)-(trans)-propyl 4-((3-(2-cyanoethyl)cyclohexyl)amino)-1H-pyrrolo[2,3-b]pyridine-5-carboxylate], the IC50 in experiment [1] was at most 10 nM; in experiment [2] it was at most 10 nM; in experiment [3] (Homo sapiens, PBMC), 100 to 1000 nM; in experiment [4] (Homo sapiens, PBMC), 100 to 1000 nM.
Turning to `CCOC(=O)c1cnc2[nH]ccc2c1N[C@@H]1CCC[C@@H](CCC#N)C1` (single isomer, unassigned; enantiomer 1) [Example 137, (trans) ethyl 4-((3-(2-cyanoethyl)cyclohexyl)amino)-1H-pyrrolo[2,3-b]pyridine-5-carboxylate enantiomer 1], the IC50 is at most 10 nM in experiment [1]; at most 10 nM in experiment [2]; over 1000 nM in experiment [3] (Homo sapiens, PBMC); at most 100 nM in experiment [4] (Homo sapiens, PBMC).
On to `CCOC(=O)c1cnc2[nH]ccc2c1N[C@H]1CC[C@H](OC(=O)CC#N)C1` (single isomer, unassigned) [Example 74, (trans)-ethyl 4-((3-(2-cyanoacetoxy)cyclopentyl)amino)-1H-pyrrolo[2,3-b]pyridine-5-carboxylate], for which the IC50 in experiment [1] is 10 to 100 nM; in experiment [2], 10 to 100 nM; in experiment [3] (human PBMC), over 1000 nM; in experiment [4] (human PBMC) it was 100 to 1000 nM.
As to `CCOC(=O)c1cnc2[nH]ccc2c1NC1CCCC(O)C1` (stereo not drawn) [Example 141, ethyl 4-((3-hydroxycyclohexyl)amino)-1H-pyrrolo[2,3-b]pyridine-5-carboxylate], the 50% inhibitory concentration (IC50) in experiment [1] was 10 to 100 nM; in experiment [2], 10 to 100 nM; in experiment [3] (Homo sapiens, PBMC), over 1000 nM; in experiment [4] (Homo sapiens, PBMC) it was 100 to 1000 nM.
Consider `CCOC(=O)c1cnc2[nH]ccc2c1N(C)[C@H]1CN(C(=O)CC#N)CC[C@H]1C` [Example 1, ethyl 4-(((3R,4R)-1-(2-cyanoacetyl)-4-methylpiperidin-3-yl)(methyl)amino)-1H-pyrrolo[2,3-b]pyridine-5-carboxylate], for which the IC50 in experiment [1] was 10 to 100 nM; in experiment [2], 10 to 100 nM; in experiment [3] (Homo sapiens, PBMC), over 1000 nM; in experiment [4] (Homo sapiens, PBMC), 100 to 1000 nM.
Turning to `CCOC(=O)c1cnc2[nH]ccc2c1N(C)[C@H]1CC[C@H](OC(=O)CC#N)C1` (single isomer, unassigned) [Example 70, (trans)-ethyl 4-((3-(2-cyanoacetoxy)cyclopentyl)(methyl)amino)-1H-pyrrolo[2,3-b]pyridine-5-carboxylate], the IC50 was 10 to 100 nM in experiment [1]; 100 to 1000 nM in experiment [2]; over 1000 nM in experiment [3] (Homo sapiens, PBMC); 100 to 1000 nM in experiment [4] (human PBMC).
Turning to `CCOC(=O)c1cnc2[nH]ccc2c1N[C@H]1CC[C@H](O)C1` (single isomer, unassigned) [Example 75, (trans)-ethyl 4-((3-hydroxycyclopentyl)amino)-1H-pyrrolo[2,3-b]pyridine-5-carboxylate], the concentration for half-maximal inhibition (IC50) in experiment [1] was 10 to 100 nM; in experiment [2], 10 to 100 nM; in experiment [3] (Homo sapiens, PBMC) it was over 1000 nM; in experiment [4] (Homo sapiens, PBMC), 100 to 1000 nM.
Take `CCOC(=O)c1cnc2[nH]ccc2c1NC1CCCC(CCC#N)C1` (stereo not drawn) [Example 132, ethyl 4-((3-(2-cyanoethyl)cyclohexyl)amino)-1H-pyrrolo[2,3-b]pyridine-5-carboxylate]: the concentration for half-maximal inhibition (IC50) in experiment [1] is at most 10 nM; in experiment [2], at most 10 nM; in experiment [3] (Homo sapiens, PBMC), 100 to 1000 nM; in experiment [4] (Homo sapiens, PBMC), at most 100 nM.
`CCOC(=O)c1cnc2[nH]ccc2c1NC1CCC(CCC#N)C1` (single isomer, unassigned; stereoisomer 1) [Example 154, Ethyl 4-((3-(2-cyanoethyl)cyclopentyl)amino)-1H-pyrrolo[2,3-b]pyridine-5-carboxylate, single stereoisomer 1]: the IC50 was 100 to 1000 nM in experiment [1]; 10 to 100 nM in experiment [2]; over 1000 nM in experiment [3] (Homo sapiens, PBMC); 100 to 1000 nM in experiment [4] (Homo sapiens, PBMC).
On to `CCOC(=O)c1cnc2[nH]ccc2c1N[C@@H]1CCCN(CCC#N)C1` [Example 123, ethyl (R)-4-((1-(2-cyanoethyl)piperidin-3-yl)amino)-1H-pyrrolo[2,3-b]pyridine-5-carboxylate], for which the IC50 is at most 10 nM in experiment [1]; at most 10 nM in experiment [2]; 100 to 1000 nM in experiment [3] (Homo sapiens, PBMC); at most 100 nM in experiment [4] (Homo sapiens, PBMC).
For `COCCOC(=O)c1cnc2[nH]ccc2c1N[C@H]1CCC[C@@H](CCC#N)C1` (single isomer, unassigned; enantiomer 1) [Example 149, cis-2-methoxyethyl 4-((3-(2-cyanoethyl)cyclohexyl)amino)-1H-pyrrolo[2,3-b]pyridine-5-carboxylate, enantiomer 1], the IC50 in experiment [1] is 100 to 1000 nM; in experiment [2], 10 to 100 nM; in experiment [3] (Homo sapiens, PBMC), over 1000 nM; in experiment [4] (Homo sapiens, PBMC), 100 to 1000 nM.
For the compound `CCCOC(=O)c1cnc2[nH]ccc2c1N[C@H]1CCC[C@@H](CCC#N)C1` (racemic) [Example 139, (rac) (cis) propyl 4-((3-(2-cyanoethyl)cyclohexyl)amino)-1H-pyrrolo[2,3-b]pyridine-5-carboxylate], the half-inhibitory concentration (IC50) is at most 10 nM in experiment [1]; at most 10 nM in experiment [2]; over 1000 nM in experiment [3] (Homo sapiens, PBMC); 100 to 1000 nM in experiment [4] (Homo sapiens, PBMC).
Consider `CCOC(=O)c1cnc2[nH]ccc2c1N[C@H]1CCC[C@H](CCC#N)C1` (single isomer, unassigned; enantiomer 2) [Example 138, (trans)-ethyl 4-((3-(2-cyanoethyl)cyclohexyl)amino)-1H-pyrrolo[2,3-b]pyridine-5-carboxylate, enantiomer 2], for which the IC50 in experiment [1] was 10 to 100 nM; in experiment [2], at most 10 nM; in experiment [3] (Homo sapiens, PBMC), 100 to 1000 nM; in experiment [4] (Homo sapiens, PBMC), 100 to 1000 nM.

One may read the IC50 as the concentration that gives 50% inhibition.
